Results reported in publication PMC4850424 (Molecular Cell, 2016).

Experiments:
[1] = tested on: histone octamers / chromatin (H4K5 and H4K8); conditions: [14C] butyryl-CoA, in vitro; ref Chen et al., 2007; cited from earlier work
testis-derived Brdt = assay: JQ1 inhibition of Brdt binding to H4 peptides; parameters: species or system mouse; conditions: JQ1 added to extract prior to peptide pull-down; Figure 6C lower left

Molecule | lysine butyrylation of core histones [1] | inhibition of Brdt binding to H4K5acK8bu peptide (testis-derived Brdt) | inhibition of Brdt binding to acetylated H4 peptide (testis-derived Brdt)
p300: Flag tagged human p300 (324-2094), recombinant from baculovirus-infected insect cells | can catalyze lysine butyrylation |  | 
CREB binding protein (CBP): histone acyltransferase | can catalyze lysine butyrylation |  | 
Cc1sc2c(c1C)C(c1ccc(Cl)cc1)=N[C@@H](CC(=O)OC(C)(C)C)c1nnc(C)n1-2 [JQ1] |  | abolished the binding | abolished the binding
